The source of these data is ChEMBL document CHEMBL1126398, “(5S)-3-aryl-5-(1-piperidinylmethyl)-2-oxazolidinones, a new class of potential neuroleptics with a high affinity for sigma receptors” (Bioorg Med Chem Lett, 1992).

The experiment has as its target D(2) dopamine receptor (Rattus norvegicus, UniProt P61169). As to the kind of experiment: Binding affinity against the Dopamine receptor D2 in rat striatum by using [3H]spiperone radioligand. Format: tissue-based.

pIC50: −log10 of the molar value.

Sequence of D(2) dopamine receptor (P61169 whole entry): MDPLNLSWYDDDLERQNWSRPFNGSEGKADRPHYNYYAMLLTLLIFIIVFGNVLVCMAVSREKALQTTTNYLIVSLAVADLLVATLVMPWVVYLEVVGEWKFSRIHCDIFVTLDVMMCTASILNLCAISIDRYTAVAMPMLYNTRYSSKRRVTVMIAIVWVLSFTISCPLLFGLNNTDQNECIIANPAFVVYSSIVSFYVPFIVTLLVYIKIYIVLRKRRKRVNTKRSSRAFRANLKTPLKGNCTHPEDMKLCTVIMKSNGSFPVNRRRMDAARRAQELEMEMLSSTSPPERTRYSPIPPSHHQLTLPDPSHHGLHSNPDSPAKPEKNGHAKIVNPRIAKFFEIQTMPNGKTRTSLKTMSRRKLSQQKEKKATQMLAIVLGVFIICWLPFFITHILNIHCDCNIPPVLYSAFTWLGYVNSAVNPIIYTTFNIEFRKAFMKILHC

Turning to `OC(CCCN1CCN(c2ncc(F)cn2)CC1)c1ccc(F)cc1` (stereo unspecified) [BMY-14802], the pIC50 is 5.31.

In general, pIC50 refers to the IC50 on a negative log10 scale, so that one unit is a factor of ten. Read a high pIC50 as a low IC50.
